Laboratory results from paper PMC7999366, “Alkyl-Resorcinol Derivatives as Inhibitors of GDP-Mannose Pyrophosphorylase with Antileishmanial Activities” (Molecules, 2021).
Where two headings read alike, the source gives them in different places.

Key:
[1] = test system: L. infantum intramacrophage amastigotes; test: In vitro antileishmanial evaluation on intramacrophage amastigotes (Giemsa counting in RAW 264.7); assay type: cell-based, Leishmania infantum; details: for IC50: Leishmania infantum, RAW264.7, RAW 264.7 macrophages, 48 h treatment, read-out: L. infantum Intramacrophage Amastigotes IC50 (µM) ± SD; for Selectivity Index: CC50/IC50 on intramacrophage amastigotes
Procedure: Concerning the evaluation on intramacrophage amastigotes, the determination of the cytotoxicity as presented above was necessary to use the highest drug concentrations to be studied on the intramacrophage amastigote model. RAW 264.7 macrophages were plated in 16-well Lab-Tek chamber slides (Thermo-FisherVillebon-sur-Yvette, France) at a density of 2 × 10^4 cells per well and incubated for 24 h at 37 °C with 5% CO2. […] After 24 h of infection at 37 °C with 5% CO2, extracellular parasites were removed, and DMEM complete medium (100 µL) containing two-fold serial dilutions of the compounds, from 100 µM to 0.049 µM, was added to each well. A positive control treated with 1% DMSO was added to each Lab-tek chamber-slide. After 48 h of treatment, the medium was removed and cells were fixed in methanol for 1 min, stained in 10% Giemsa (Merck) for 5 min, and further rinsed in water before observation in phase contrast at the microscope (Olympus CX31; Olympus, Rungis, France). The number of amastigotes was counted by two independent experimenters for a total of 300 macrophages per well and the ratio of amastigotes per macrophage was determined for each condition. This ratio was further compared with the one of the positive control, considered as 100%, to determine a percentage of inhibition (% I), as follows: % I = 100 − ((ratio of amastigotes per macrophage in treated cells/ratio of amastigotes per macrophages in untreated cells) × 100). The activity of the compounds was expressed as IC50, which was determined by nonlinear regression using GraphPad Prism 7.0. […] In vitro antileishmanial evaluations were performed in triplicate in three independent experiments.

[2] = test system: L. infantum axenic amastigotes; test: In vitro antileishmanial evaluation on axenic amastigotes (resazurin); assay type: cell-based, Leishmania infantum; details: 72 h incubation, read-out: L. infantum Axenic Amastigotes IC50 (µM) ± SD
Procedure: Promastigotes of Leishmania infantum (MHOM/FR/2008/LEM5700) were cultured in the dark at 26 °C with 5% CO2 in M199 complete medium containing M199 medium supplemented with adenosine (100 µM), hemin (0.5 mg/L), Hepes (40 mM) pH 7.4, and heat inactivated foetal bovine serum (10%; HIFBS). Cultures of axenic amastigotes of L. infantum were adapted from. Briefly, axenic amastigotes of L. infantum were obtained from late log promastigotes diluted at 1 × 10^6/mL in M199 complete medium acidified at pH 5.5 and cultured at 37 °C with 5% CO2.
The evaluations of activity on axenic amastigotes were adapted from the protocols previously described. Briefly, two-fold serial dilutions of the compounds, from 100 µM to 0.049 µM, were performed in 100 µL of complete medium (see above) in 96-well microplates. Axenic amastigotes were then added to each well at a density of 10^6/mL in a 200 µL final volume. After 72 h of incubation at 37 °C with 5% CO2, 20 µL of resazurin (450 µM) was added to each well and further incubated in the dark for 24 h at 37 °C with 5% CO2. Cell viability was then monitored as described above. The activity of the compounds was expressed as IC50, which was determined by nonlinear regression using GraphPad Prism 7.0.

LiGDP-MP = LiGDP-MP (Leishmania infantum, UniProt A4I048); test: Enzyme inhibition assay on purified recombinant LiGDP-MP (malachite green); assay type: biochemical
Chain of LiGDP-MP (A4I048 entry or part of it): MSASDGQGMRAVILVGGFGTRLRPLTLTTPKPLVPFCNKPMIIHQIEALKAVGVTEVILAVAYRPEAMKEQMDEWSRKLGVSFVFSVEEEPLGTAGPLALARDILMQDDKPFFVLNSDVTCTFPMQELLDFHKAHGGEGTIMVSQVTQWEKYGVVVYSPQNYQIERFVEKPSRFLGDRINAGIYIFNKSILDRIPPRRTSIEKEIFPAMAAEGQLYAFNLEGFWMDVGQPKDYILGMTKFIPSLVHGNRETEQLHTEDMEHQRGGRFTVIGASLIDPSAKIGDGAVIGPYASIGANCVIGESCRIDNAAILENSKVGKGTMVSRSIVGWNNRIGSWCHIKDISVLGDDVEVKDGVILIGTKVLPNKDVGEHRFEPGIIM
From the text: (§1) Recombinant His6 tagged GDP-MP from L. infantum (LiGDP-MP) was produced in E. coli and purified using Ni-nitrilotriacetic acid (Ni-NTA) and size exclusion chromatography Hiload^TM16/60 Superdex^TM 200 column as previously described for LdGDP-MP [12]. Recombinant His-tagged GDP-MP from human (hGDP-MP) was produced in E. coli and purified using a Mono-Q anion exchange column followed by a Hiload^TM 16/60 Superdex^TM 200 column as previously described.
(§2) Enzyme activities of both LiGDP-MP and hGDP-MP were measured at 37 °C for 20 min in 384 well plates in a 20-µL reaction containing 50 mM Tris-HCl pH 7.5, 5 mM MgCl2, 100 µM Mannose-1-phosphate, 100 µM GTP, 1 mM DTT, 0.1 U/mL inorganic pyrophosphatase (Sigma-Aldrich, Saint-Quentin-Fallavier, France) and 2 ng/µL of recombinant GDP-MP [12, 29]. The reaction was initiated by the addition of GDP-MP, and was stopped after adding 20 µL of revelation buffer containing malachite green (0.03% w/v), ammonium molybdate (0.2% w/v) and Triton X-100 (0.05% v/v) in HCl (0.7 M) for 5 min at 37 °C. The quantity of inorganic phosphate generated, representing GDP-MP activity, was determined by measuring OD650nm with a spectrometer plate reader Polar Omega (BMG LabTech, Champigny-sur-Marne, France).
(§3) To evaluate compounds on purified GDP-MPs, enzyme activities were measured as described above in the presence of 100 µg/mL of natural products originating from a chemical library from ICSN (Institut de Chimie des Substances Naturelles, Gif-sur-Yvette). The inhibitors were added in the reaction mix, before the addition of GDP-MP. The percentage of inhibition was then calculated in reference to untreated enzyme. The statistical parameter (Z-factor) was calculated to validate the quality of the HTS assays as described previously. As a control, compounds were evaluated in parallel in the same conditions on inorganic pyrophosphatase alone in order to discard false-positives. […] The IC50 were determined by nonlinear regression using GraphPad Prism 7.0 and further converted in µM in order to normalize units in Table 1. Enzyme inhibition assays were performed in triplicate in three independent experiments.

hGDP-MP = target: T1, hGDP-MP (Homo sapiens, UniProt Q9Y5P6); test: Enzyme inhibition assay on purified recombinant hGDP-MP (malachite green); assay type: biochemical; details: 37 °C, 20 min, read-out: hGDP-MP IC50 (µM) ± SD
T1 construct: His; made in house; host or cells: E. coli
T1 sequence (Q9Y5P6 whole entry): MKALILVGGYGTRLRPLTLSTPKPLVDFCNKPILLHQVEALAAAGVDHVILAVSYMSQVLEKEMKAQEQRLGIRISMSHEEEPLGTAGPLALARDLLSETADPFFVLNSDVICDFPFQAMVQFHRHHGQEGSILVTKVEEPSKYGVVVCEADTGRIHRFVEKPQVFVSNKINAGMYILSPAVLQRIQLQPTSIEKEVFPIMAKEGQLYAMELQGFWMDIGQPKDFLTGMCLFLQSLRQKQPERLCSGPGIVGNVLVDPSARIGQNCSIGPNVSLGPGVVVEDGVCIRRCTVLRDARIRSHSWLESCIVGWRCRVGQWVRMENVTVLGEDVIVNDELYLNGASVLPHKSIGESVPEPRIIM
From the text: as §1, §2, §3

[3] = In vitro cytotoxicity on RAW 264.7 macrophages (resazurin); assay type: cell-based; details: mouse, 48 h incubation, read-out: Cytotoxicity on RAW 264.7 CC50 (µM) ± SD
Procedure: The RAW 264.7 macrophages (ATCC) were cultured at 37 °C with 5% CO2 in DMEM complete medium containing Dulbecco′s Modified Eagle′s Medium (DMEM, Invitrogen, Thermo-Fisher, Villebon-sur-Yvette, France) supplemented with penicillin-streptomycin (100 U/mL; Invitrogen), and heat-inactivated fetal bovine serum (10%; HIFBS).
Cytotoxicity was evaluated on RAW 264.7 macrophages. Cells were plated in 96-well microplates at a density of 2 × 10^4 cells per well. After an incubation of 24 h at 37 °C with 5% CO2, the medium was removed in each well, and 100 µL of DMEM complete medium containing two-fold serial dilutions of the compounds, from 100 µM to 0.049 µM, was added to each well. After 48 h of incubation at 37 °C with 5% CO2, 10 µL of resazurin (450 µM) was added to each well, and further incubated in the dark for 4 h at 37 °C with 5% CO2. In living cells, resazurin is reduced in resorufin, and this conversion is monitored by measuring OD570nm (resorufin) and OD600nm (resazurin; multimode microplate reader Spark®, Tecan, Lyon, France). […] In vitro cytotoxicity assays were performed in triplicate in three independent experiments.

[4] = purified recombinant enzyme, 37 °C, 20 min, read-out: LiGDP-MP IC50 (µM) ± SD

Row | SMILES | IC50 [1] | IC50 ([2]; Leishmania infantum, 72 h) | IC50 (LiGDP-MP) | activity on leishmanial GDP-MP (in words) (LiGDP-MP; purified enzyme) | Selectivity Index [1] | IC50 (hGDP-MP) | CC50 at 48 h [3] | IC50 [2] | IC50 (LiGDP-MP; [4])
1 | CCCCCCCCCCCCCCCCOP(=O)([O-])OCC[N+](C)(C)C [Miltefosine, hexadecylphosphocholine, reference compound] | 6.7 ± 1.7 µM | 1 ± 0.3 µM | > 250 µM | did not show any activity |  |  |  |  | 
2 | COc1cc(O)cc(CCCCCCCCC/C=C\CCCCCCCc2cc(O)cc(O)c2)c1 [compound 3, (10′Z)-1-hydroxy-3-methoxy-5-[18′-(3′′,5′′-dihydroxy-phenyl)-10′-octodecen-1′-yl]benzene] | > 25 µM | > 25 µM |  |  | <1.2 | 1.9 ± 0.4 µM | 31.8 ± 1.6 µM | 49.5 ± 4.2 µM | 2.3 µM
3 | CCCC/C=C\CCCCCCCc1cccc(O)c1C(=O)O [compound 6, (Z)-2-hydroxy-6-(tridec-8-en-1-yl)benzoic acid] | 42.7 ± 1.3 µM | > 100 µM |  |  | >2.3 | 122 ± 26.1 µM | > 100 µM |  | 100 ± 16.6 µM
4 | CCCCCCCCCCCc1cccc(O)c1C(=O)O [compound 5, anagigantic acid] | > 100 µM | > 100 µM |  |  |  | 38.3 ± 4.1 µM | > 100 µM |  | 50.6 ± 4.8 µM
5 | CCCCCCCCCCCCCc1cccc(O)c1C(=O)O [compound 7, 2-hydroxy-6-tridecylbenzoic acid] | > 100 µM | > 100 µM |  |  |  | 29 ± 2.5 µM | > 100 µM |  | 16.9 ± 5 µM
6 | COc1cc(O)cc(CCCCCCCCCCCCCCCCc2cc(O)cc(O)c2)c1 [compound 2, 1-hydroxy-3-methoxy-5-[16′-(3′′,5′′-dihydroxyphenyl)-hexadecanyl]benzene] |  |  |  |  |  | 13.7 ± 14.2 µM |  |  | 5.9 ± 3.5 µM
7 | COc1cc(O)cc(CCCCCCC/C=C\CCCCCCCc2cc(O)cc(O)c2)c1 [compound 1, (8′Z)-1-hydroxy-3-methoxy-5-[16′-(3′′,5′′-dihydroxy-phenyl)-8′-hexadecen-1′-yl]benzene] | > 50 µM | > 50 µM |  |  | <0.7 | 1.3 ± 0.2 µM | 34.4 ± 1.5 µM | 78.9 ± 3.1 µM | 
8 | CCCC/C=C\CCCCCc1cccc(O)c1C(=O)O [compound 4, Khookerianic acid B] | > 100 µM | > 100 µM |  |  | <0.8 | 79.9 ± 5.9 µM | 83.1 ± 7 µM |  | 120 ± 27.5 µM
